Experimental data published in patent publication US20250034186A1, “ANTIVIRAL COMPOUNDS” (priority 2020, published 2025).

Columns and labels:
DENV2 replicon = test: DENV-2 Huh-7 Rep EC50; assay type: cell-based, dengue virus; details: for EC50: Dengue virus, Huh-7 cells containing DENV2 replicon, 48 hours, read-out: DENV Huh7 REP EC50
Procedure: In 384 well plates (Greiner, Cat #781091), compounds were acoustically transferred at 200 nl per well in a 8 compound (4 replicates) or 40 compound dose response format (3 replicates). For all plates tested, Balapiravir, GS-5734 and NITD008 were included as positive inhibition controls alongside 0% inhibition, DMSO-only negative control wells. Following compound addition, Huh-7 cells containing the DENV2 replicon construct were harvested following standard cell culture procedures and were adjusted to a concentration of 1.25E5 cells/mL in cell culture media composed of cDMEM without genticin. 40 μL of the cell stock was then added to each well for a final cell density of 5,000 cells/well. Cell and compound mixtures were incubated at 37° C./5% CO2 for 48 hours. Prior to harvesting cells, EnduRen Live Cell Substrate (Promega, Cat #E6481) was prepared by suspending 3.4 mg into 100 uL of DMSO to generate a 60 mM stock solution. The stock solution was then diluted 1:200 in pre-warmed cDMEM and 10 uL of this diluted solution was added to each well of the 384 well plates. Plates were then centrifuged at 500 rpm briefly and were placed on a plate shaker for 2 min. Following mixing, plates were incubated at […] for 1.5 hours prior to measuring luminescence on an Envision luminometer.

HEp-2 cytotoxicity assay = assay type: cell-based; details: human, HEp-2 cells (uninfected), 4-5 days
Procedure: Cytotoxicity of the compound of Formula I and compounds 1, 2, and 6 was determined in uninfected cells using the cell viability reagent in a similar fashion as described before for other cell types (Cihlar et al., Antimicrob Agents Chemother. 2008, 52(2):655-65.). HEp-2 (1.5×10^3 cells/well) and MT-4 (2×10^3 cells/well) cells were plated in 384-well plates and incubated with the appropriate medium containing 3-fold serially diluted compound ranging from 15 nM to 100,000 nM. Cells were cultured for 4-5 days at 37° C. Following the incubation, the cells were allowed to equilibrate to 25° C., and cell viability was determined by adding Cell-Titer Glo viability reagent. The mixture was incubated for 10 min, and the luminescence signal was quantified using an Envision plate reader. Untreated cell and cells treated at 2 μM puromycin (Sigma, St. Louis, MO) serve as 100% and 0% cell viability control, respectively.

[1] = Stability assay in cynomolgus monkey hepatic S9 fractions; assay type: in vitro ADME; details: 37° C., NADPH and UDPGA, read-out: Cyno HepS9 t1/2
Procedure: For S9 stability, the compounds were incubated at 2 μM in cynomolgus monkey or human hepatic S9 fractions for up to 90 min at 37° C. in the presence of NADPH and UDPGA (Phase I and Phase II cofactor, Sigma-Aldrich). At desired time points following compound addition, samples were quenched with 9 volumes of an aqueous solution containing internal standard, 50% acetonitrile and 25% methanol. Sample plates were centrifuged at 3000 g for 30 min, and 10 μL of the resulting solution was analyzed by LC-MS/MS. Data (analyte to internal standard peak area ratio) were plotted on a semi log scale and fitted using an exponential fit. The half-life (T1/2) was determined assuming first order kinetics.

RSV A strain A2 = test: RSV HAE EC50, intracellular RSV RNA by real-time PCR; assay type: cell-based; details: for EC50: human respiratory syncytial virus, 72 h, RSV A2 in HAE cells, air-liquid interface, 3 days, RSV RNA
Procedure: HAE cells are cultured at the air-liquid interface and have an apical side that is exposed to the air and a basal side that is in contact with the medium. Prior to experimentation, HAE were removed from their agar-based shipping packaging and were acclimated to 37° C./5% CO2 overnight in 1 ml of HAE Assay medium (AIR-100-MM, Mattek Corp). HAE were prepared for infection by washing the apical surface twice with 400 μL of PBS (either utilizing direct pipetting methods or by running each transwell through a trough containing PBS) to remove the mucus layer. Apical chambers were drained of PBS and tapped gently onto absorbent material to remove as much PBS as possible. After washing, the cells were transferred to fresh HAE maintenance media containing 4-fold serially diluted compound, delivered to the basal side of the cell monolayer, and apically infected with 100 μL of a 1:600 dilution of RSV A strain A2 1000× stock (ABI, Columbia, MD, Cat #10-124-000) in HAE assay medium for 3 hours at 37° C. in 5% CO2. The virus inoculum was removed and the apical surface of the cells was washed 3 times with PBS using either method previously described. The cells were then cultured in the presence of compound for 3 days at 37° C. Following the incubation, total RNA was extracted from the HAE cells using a MagMAX-96 Viral RNA isolation kit (Applied Biosystems, Foster City, CA, Cat #AM1836) and intracellular RSV RNA was quantified by real-time PCR. Approximately 25 ng of purified RNA was added to a PCR reaction mixture that contained 0.9 μM RSV N Forward and RSV N Reverse primers, 0.2 μM RSV N Probe and 1× Taqman RNA-to-Ct 1-Step Kit (Applied Biosystems, Foster City, CA, Cat #4392938). RNA levels were normalized using a Taqman GAPDH control primer set (Applied Biosystems, Foster City, CA, Cat #402869). Real-Time PCR Primers and Probe Used in the RSV A2 HAE Antiviral Assay: RSV N Forward […] (SEQ ID NO: 2), RSV N Reverse […] (SEQ ID NO: 3), RSV N Probe FAM-[…]-BHQ (SEQ ID NO: 4).

SAEC cytotoxicity assay = assay type: cell-based; details: human, small airway epithelial cells (SAEC)
Procedure: Human Small Airway Epithelial cells (SAEC) were purchased from Lonza (Walkersville, MD, Cat #CC-2547) and cultured in supplemented Small Airway Epithelial Cell Growth Medium (SAGM) (lonza, Walkersville, MD, Cat #CC-3118). The cells were passaged 1-2 times per week to maintain <80% confluency per manufacturer's protocol. The SAEC cells were discarded after 5 passages in culture.
Following attachment, 3-fold serially diluted compound was added using a Hewlett-Packard D300 Digital Dispenser (Hewlett Packard, Palo Alto, CA) in triplicate. The final concentration of DMSO was normalized to 1.0%. Following compound addition, NHBE or SAEC cells were incubated at 37° C. for 5 days. The NHBE or SAEC cells were then allowed to equilibrate to 25° C. and cell viability was determined by removing 100 μL of culture medium and adding 100 μL of Cell-Titer Glo viability reagent (Promega, Madison, WI). The mixtures were incubated for 10 minutes at 25° C., and the luminescence signal was quantified on an Envision luminescence plate reader (PerkinElmer, Waltham, MA). Percent viability values were determined by normalization to 1.0% DMSO-only control wells with background luminescent signal subtracted out.

Compound | EC50 (DENV2 replicon) [µM] | CC50 (HEp-2 cytotoxicity assay) [µM] | half-life at 2 μM [1] [min] | EC50 (RSV A strain A2) [nM] | CC50 at 5 days (SAEC cytotoxicity assay) [µM] | times more potent than compound 1, DENV huh7 Rep (DENV2 replicon; EC50 ratio vs compound 1) | times more potent compared to compound 2, DENV huh7 Rep (DENV2 replicon; EC50 ratio vs compound 2) | times more potent relative to compound 2, RSV HAE (RSV A strain A2; EC50 ratio vs compound 2)
CCOC(=O)[C@H](C)NP(=O)(OC[C@@]1(C#N)O[C@@H](c2ccc3c(N)ncnn23)[C@H](O)[C@@H]1O)Oc1ccccc1 (stereo partly shown) [Compound 1, reference compound] | 73.4 | > 91.5 | – | – | – | – | – | –
CCC(CC)COC(=O)[C@H](C)NP(=O)(OC[C@@]1(C#N)O[C@@H](c2ccc3c(N)ncnn23)[C@H](O)[C@@H]1O)Oc1ccccc1 (stereo partly shown) [Compound 2, reference compound] | 5.54 | > 95.4 | 3 | 186 | 28.3 | – | – | –
CCC(CC)COC(=O)[C@H](C)N[P@](=O)(OC[C@@]1(C#N)O[C@@H](c2ccc3c(N)ncnn23)[C@H](O)[C@@H]1O)Oc1ccccc1 [Compound 6, 2-ethylbutyl ((S)-(((2R,3S,4R,5S)-5-(4-aminopyrrolo[2,1-f][1,2,4]triazin-7-yl)-2-cyano-3,4-dihydroxytetrahydrofuran-2-yl)methoxy)(phenoxy)phosphoryl)alaninate] | – | > 95 | 2 | 110 | 27.2 | – | – | –
C[C@H](N[P@](=O)(OC[C@@]1(C#N)O[C@@H](c2ccc3c(N)ncnn23)[C@H](O)[C@@H]1O)Oc1ccccc1)C(=O)OC1CCCCC1 [Formula I, cyclohexyl ((S)-(((2R,3S,4R,5S)-5-(4-aminopyrrolo[2,1-f][1,2,4]triazin-7-yl)-2-cyano-3,4-dihydroxytetrahydrofuran-2-yl)methoxy)(phenoxy)phosphoryl)-L-alaninate] | 2.94 | > 100 | 26 | 23 | 123 | about 25.0 times | about 1.9 times | about 8.1 times
